Measurements published in paper PMC2802534 (Journal of medicinal chemistry, 2009).

Legend:
[1] = tested on: HIV-1IIIB; assay: Inhibition of HIV-1 IIIB replication in MT-2 cells, p24 production by ELISA; assay type: cell-based; conditions: for fold more potent than 12 and 13: replication of HIV-1 IIIB and 94UG103, relative to 12 and 13
[2] = tested on: HIV-1; conditions: previously identified; cited from earlier work

Row | Structure (SMILES) | fold more potent than 12 and 13 [1] | inhibit HIV-1 infection [2] | further results
1 | O=C(O)c1cccc(-c2ccc(/C=C3\SC(=S)N(CCc4ccccc4)C3=O)o2)c1 [11a, 3-{5-[4-Oxo-3-phenethyl-2-thioxothiazolidin-5-ylidenemethyl]furan-2-yl}-benzoic acid] | more than 20 fold |  | 
2 | Cc1ccc(-c2ccc(/C=C3\SC(=S)N(CCc4ccccc4)C3=O)o2)cc1C(=O)O [11b, 2-Methyl-5-{5-[4-oxo-3-phenethyl-2-thioxothiazolidin-5-ylidenemethyl]furan-2-yl}-benzoic acid] | more than 20 fold |  | 
3 | O=C(O)c1cc(-c2ccc(/C=C3\SC(=S)N(CCc4ccccc4)C3=O)o2)ccc1Br [11i, 2-Bromo-5-{5-[4-oxo-3-phenethyl-2-thioxothiazolidin-5-ylidenemethyl]furan-2-yl}-benzoic acid] |  |  | fold reduction of anti-HIV-1 activity ([1]; relative to unsubstituted 11a): ~ 7 fold
4 | O=C(O)c1cc(-c2ccc(/C=C3\SC(=S)N(CCc4ccccc4)C3=O)o2)ccc1Cl [11d, 2-Chloro-5-{5-[4-oxo-3-phenethyl-2-thioxothiazolidin-5-ylidenemethyl]furan-2-yl}-benzoic acid] | more than 20 fold |  | fold greater potency than 13 ([1]; relative to 13): ~ 25 fold
5 | Cc1ccc(C)n1-c1ccc(C(=O)O)c(O)c1 [compound 12, N-(4-carboxy-3-hydroxy)phenyl-2,5-dimethylpyrrole] |  | low μM level | 
6 | O=C(O)c1cc(-n2cccc2)ccc1Cl [compound 13, N-(3-carboxy-4-chloro) phenylpyrrole] |  | low μM level | 
